Test results from a compilation of properties of binary mixtures (doi:10.1039/c8ra04127j).

Test: xn = mol fraction of the nth substance listed
Conditions: 100 kPa

C[N+](C)(C)CCC[N+]1(C)CCCCC1.N#C[N-]C#N.N#C[N-]C#N + CC#N
viscosity [mPa·s]
Conditions | 288.15 K | 293.15 K | 298.15 K | 303.15 K | 308.15 K | 313.15 K | 318.15 K | 323.15 K | 328.15 K | 333.15 K
x1 = 0.0999 | 3.99 | – | 3.42 | 3.18 | – | 2.81 | – | 2.54 | 2.43 | 2.32
x1 = 0.2001 | 17.4 | 15.1 | 13.2 | 11.6 | 10.3 | – | – | 7.49 | – | 6.16
x1 = 0.3001 | 56.9 | 45.9 | – | 31.4 | – | 22.7 | 19.6 | – | 15.4 | 13.7
x1 = 0.3998 | 146 | 112 | 87.3 | – | – | 46.6 | 39.3 | 33.3 | 28.6 | 24.8
x1 = 0.5002 | 334 | 243 | – | 139 | – | 87 | – | 58.2 | – | –
x1 = 0.6 | 679 | 466 | 322 | 246 | 185 | 145 | 114 | – | – | 62.3
x1 = 0.7001 | 1177 | 729 | 508 | 370 | 274 | 210 | – | – | 105 | 85.5
x1 = 0.7996 | – | 1390 | 900 | 623 | 449 | 329 | 246 | 193 | 152 | 122
x1 = 0.8998 | 3992 | 2477 | 1610 | 1085 | 760 | – | 400 | 303 | 233 | –
x1 = 1 | 7553 | – | – | 1837 | 1224 | 856 | – | 460 | 350 | 270

C[N+](C)(C)CCC[n+]1ccccc1.N#C[N-]C#N.N#C[N-]C#N + CC#N
viscosity [mPa·s]
Conditions | x1 = 0.0999 | x1 = 0.1999 | x1 = 0.2998 | x1 = 0.3997 | x1 = 0.4999 | x1 = 0.6002 | x1 = 0.7001 | x1 = 0.7998 | x1 = 0.8997 | x1 = 1
283.15 K | 4.14 | 14.2 | 52.8 | 131 | 245 | 474 | – | 1385 | 2375 | 7557
288.15 K | 3.75 | 12.3 | 42.2 | 98 | 175 | 321 | 554 | 848 | – | –
293.15 K | 3.45 | – | 34.5 | – | 129 | 226 | 371 | 562 | 850 | –
298.15 K | 3.21 | 9.55 | 28.7 | 59.8 | 98 | 166 | 264 | 382 | – | 1306
303.15 K | – | 8.55 | – | 48.3 | 76.3 | 125 | 192 | – | 392 | 831
308.15 K | 2.83 | – | 21 | 39.6 | 61.3 | 96.7 | 146 | 200 | 286 | 558
313.15 K | 2.67 | 7.03 | 18.2 | 33.3 | 50 | 76.6 | 109 | 145 | 213 | 386
318.15 K | 2.54 | 6.43 | – | 28.2 | 43.5 | 63.9 | 89.7 | 118 | 161 | 281
323.15 K | – | 5.91 | 14.1 | 24.2 | 36.7 | 51.7 | 70.9 | 91.6 | 123 | –
328.15 K | 2.32 | 5.47 | 12.5 | 21 | 30.6 | 43.3 | 57.6 | 73.2 | 95.6 | 162
333.15 K | 2.23 | – | 11.2 | 18.4 | 27.6 | – | 48.5 | 60.3 | 75.3 | 127

CC#N + C[N+](C)(C)CCC[n+]1ccccc1.N#C[N-]C#N.N#C[N-]C#N
x2 = 0
Conditions | viscosity [mPa·s]
283.15 K | 0.401
288.15 K | 0.382
293.15 K | 0.364
298.15 K | 0.348
303.15 K | 0.333
308.15 K | 0.32
313.15 K | 0.307
318.15 K | 0.296
323.15 K | 0.285

CC#N + C[N+](C)(C)CCC[N+]1(C)CCCCC1.N#C[N-]C#N.N#C[N-]C#N
x2 = 0
Conditions | viscosity [mPa·s]
293.15 K | 0.364
308.15 K | 0.32
313.15 K | 0.307
318.15 K | 0.296
323.15 K | 0.285
328.15 K | 0.275
